Measured values published in PMC10653776, “New dammarane-type triterpenoids from hydrolyzate of total Gynostemma pentaphyllum saponins with protein tyrosine phosphatase 1B inhibitory activity” (Journal of Enzyme Inhibition and Medicinal Chemistry, 2023).

Experiments:
PTP1B [1] = biological target: T1, PTP1B (Homo sapiens, UniProt P18031); assay: PTP1B inhibition assay (pNPP colorimetric method); assay type: biochemical; parameters: purchased Abcam (Shanghai) Trading Co., Ltd. ab51277; conditions: for IC50: pNPP substrate, 37 °C 30 min, means ± SD of three replications; for PTP1B inhibitory activity (in words): pNPP method, compared with positive control NaVO4
T1 sequence (P18031 1-435): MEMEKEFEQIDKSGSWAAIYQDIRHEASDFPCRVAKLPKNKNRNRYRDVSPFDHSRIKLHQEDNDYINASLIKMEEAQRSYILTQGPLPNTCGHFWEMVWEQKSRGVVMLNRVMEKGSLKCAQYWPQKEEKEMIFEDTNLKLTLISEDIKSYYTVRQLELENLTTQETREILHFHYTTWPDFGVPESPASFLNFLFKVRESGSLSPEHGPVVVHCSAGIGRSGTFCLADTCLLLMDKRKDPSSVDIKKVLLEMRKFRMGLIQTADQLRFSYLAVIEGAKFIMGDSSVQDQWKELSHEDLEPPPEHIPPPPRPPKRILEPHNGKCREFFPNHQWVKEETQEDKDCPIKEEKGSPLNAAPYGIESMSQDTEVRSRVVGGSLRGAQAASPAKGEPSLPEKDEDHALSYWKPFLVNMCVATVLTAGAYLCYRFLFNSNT
Method: In the separation process, the column chromatography as performed by silica-gel (100–200 and 300–400 mesh, Qingdao Marine Chemical Co., Qingdao, China), and Sephadex LH-20 (GE Healthcare, Marlborough, MA). The TLC detection was carried by heating a silica gel plate (Qingdao Marine Chemical Co., Qingdao, China) spayed with 10% H2SO4 in ethanol. The 1D and 2D NMR spectra were recorded on a Varian INOVA AS 400 instrument (Agilent, Santa Clara, USA) with TMS as the internal standard. The chemical shift was shown in ppm while coupling constant J in Hz. Deuterated solvent ([…]) was purchased from Sigma Aldrich for NMR analysis. HR-ESI-MS data were collected by a UPLC–Q/TOF-MS system including a 1290 Infinity II UPLC system (Agilent, USA) and an Agilent 6545 Q/TOF-MS system (Agilent, MA, USA). Optical rotations were measured by a JASCO P-1020 polarimeter (Kyoto, Japan). The single crystal X-ray diffraction data were obtained by a SuperNova, Dual, Cu at zero, AtlasS2 diffractometer (Rigaku, Japan). Besides, other analytical grade chemical solvent was obtained from Jinhuada Chemical Co., ltd. Guangzhou, P.R. China. Recombinant human PTP1B protein (ab51277) was purchased from Abcam (Shanghai) Trading Co., Ltd. All chemical reagents used in the enzymatic assays were produced by Laibo Chemicals Industries, Ltd.
The enzymatic assays of protein tyrosine phosphatase 1B (PTP1B) were referred. The PTP1B inhibitory activities of test compounds were examined in 96-well plates using the colorimetric method. […] The reaction system was 100 μL: MOPS (25 mM, pH = 7.0), DTT (2 mM), EDTA (1 mM, pH = 7.0), NaCl (0.1 M), PTP 1B (25 nM), and disodium-4-nitrophenyl phosphate (pNPP, 2 mM), and the enzyme-catalysed reaction was terminated by the addition of 1.0 M NaOH after incubation at 37 °C for 30 min. The inhibition efficiency of the compounds on the enzymatic activity of PTP1B was assayed by detecting the amount of the hydrolysed product, p-nitrophenol (p-NP) at 405 nm using a microplate reader. The PTP1B inhibition activity was expressed as inhibition (%) and was calculated as Equation (1): (1) Inhibition (%)=(1−ΔAsample/ΔAcontrol)×100%

PTP1B [2] = biological target: T1, PTP1B; assay: PTP1B inhibition kinetic assay (Lineweaver-Burk and Dixon plots); assay type: biochemical; conditions: for Ki: Dixon plot method, means ± SD of three replications; for type of inhibition against PTP1B: Lineweaver-Burk double reciprocal plot
Method: The kinetic behaviour of the active compounds against PTP1B and the corresponding inhibition constants (Ki values) were investigated using Lineweaver-Burk double reciprocal plots and Dixon plots. Different concentrations of p-NPP substrates (1, 2, 5 and 10 mM) were subjected to enzymatic reactions with various concentrations of active compounds (0, 0.5, 1.0 and 5.0 μM for 18) and 100 nM PTP1B in 96-well plates. The absorbance of the reaction mixture was recorded every 3 min by a plate reader. The enzymatic velocity of the enzyme reaction was calculated based on the time-Δabs plot. All assays were performed in triplicate.

Row | SMILES | IC50 (PTP1B [1]) [µM] | PTP1B inhibitory activity (in words) (PTP1B [1]) | Ki (PTP1B [2]) [µM] | type of inhibition against PTP1B (PTP1B [2])
1 | CC(C)=C1CC=C([C@H]2CC[C@]3(C)[C@@H]2CC[C@@H]2C4=C(CC[C@]23C)C(C)(C)[C@@H]2CC[C@H]4O2)C1=O [Compound 6, Gypensapogenin A] | 19.6 ± 1.48 |  |  | 
2 | CC1(C)CCC=C(C(=O)C2CCC3(C)C2CCC2C4=C(CCC23C)C(C)(C)C2CCC4O2)O1 (stereo not shown) [Compound 1, Gypensapogenin I] | 20.3 ± 2.49 |  |  | 
3 | CC(C)=C1CC([C@H]2CC[C@]3(C)[C@@H]2CCC2[C@@]4(C)CC[C@H](O)C(C)(C)C4CC[C@]23C)=CC1=O (stereo partly shown) [Compound 2, Gypensapogenin II] | 10.5 ± 1.07 | more inhibitory activity against PTP1B than the positive control |  | 
4 | CC(C)(O)CC(=O)CC(C(=O)O)[C@H]1CC[C@]2(C)[C@@H]1CCC1[C@@]3(C)CC[C@H](O)C(C)(C)C3CC[C@]12C (stereo partly shown) [Compound 4, Gypensapogenin IV] | 4.26 ± 0.42 | more inhibitory activity against PTP1B than the positive control | 2.44 ± 0.09 | competitive inhibitors
5 | CC(C)=CC(=O)CC(C(=O)O)[C@H]1CC[C@]2(C)[C@@H]1CCC1[C@@]3(C)CC[C@H](O)C(C)(C)C3CC[C@]12C (stereo partly shown) [Compound 5, Gypensapogenin V] | 33.9 ± 0.83 |  |  | 
6 | CC(C)=C1CC=C([C@H]2CC[C@]3(C)[C@@H]2CC[C@@H]2[C@@]4(C)CC[C@H](O)C(C)(C)[C@@H]4CC[C@]23C)C1=O [Compound 8, Gypensapogenin C] | 24.6 ± 2.28 |  |  | 
7 | CC(C)=CCC[C@@](O)(C(=O)O)[C@H]1CC[C@]2(C)[C@@H]1CCC1[C@@]3(C)CC[C@H](O)C(C)(C)C3CC[C@]12C (stereo partly shown) [Compound 3, Gypensapogenin III] | 2.34 ± 0.24 | more inhibitory activity against PTP1B than the positive control | 1.16 ± 0.47 | competitive inhibitors
8 | CC(C)=C[C@H]1C=C([C@H]2CC[C@]3(C)[C@@H]2CC[C@@H]2[C@@]4(C)CC[C@H](O)C(C)(C)[C@@H]4CC[C@]23C)C(=O)O1 [Compound 9, Gypensapogenin D] | 7.77 ± 0.85 | more inhibitory activity against PTP1B than the positive control | 5.58 ± 0.7 | competitive inhibitors
9 | CC(C)=C1CC([C@H]2CC[C@]3(C)[C@@H]2CC[C@@H]2C4=C(CC[C@]23C)C(C)(C)[C@@H]2CC[C@H]4O2)=CC1=O [Compound 7, Gypensapogenin B] | 29.4 ± 2.48 |  |  | 
